Data: patent US5684166A, “(-3-ketotetrahydrofuran-2-yl) ethanal derivatives and a method for their preparation” (Biocure Limited, priority 1993, dated 1997)

Experiments:
Type in all cases: cell-based
[1] = system: HeLa (Human cervical carcinoma); assay: in vitro culture cell number, HeLa
Text: (§1) Substances having the structures of the synthesised target material when added to in vitro cultures of various cancer cell lines produced a dose-related cell death as indicated in the Tables below.

[2] = system: MOLT4 (Human Tcell leukaemia); assay: in vitro culture cell number, MOLT4
Text: as §1

[3] = system: WIL2 (Human B lymphoblastoma); assay: in vitro culture cell number, WIL2
Text: as §1

[4] = system: PA-1 (Human ovarian teratocarcinoma); assay: in vitro culture cell number, PA-1
Text: as §1

[5] = system: KHOS/NP (Human osteocarcinoma); assay: in vitro culture cell number, KHOS/NP
Text: as §1

[6] = system: CaSki (Human cervical epidermoid carcinoma); assay: in vitro culture cell number, CaSki
Text: as §1

[7] = system: PC3 (Human prostate adenocarcinoma); assay: in vitro culture cell number, PC3
Text: as §1

[8] = system: WiDr (Human colon adenocarcinoma); assay: in vitro culture cell number, WiDr
Text: as §1

[9] = system: G361 (Human malignant melanoma); assay: in vitro culture cell number, G361
Text: as §1

[10] = Homo sapiens, 2.0 μg/ml, P < 0.001, read-out: Cell No (% Control)
[11] = Homo sapiens, 5.0 μg/ml, P < 0.001, read-out: Cell No (% Control)
[12] = Homo sapiens, 7.5 μg/ml, P < 0.001, read-out: Cell No (% Control)
[13] = Homo sapiens, 10.0 μg/ml, P < 0.001, read-out: Cell No (% Control)
[14] = Homo sapiens, 20.0 μg/ml, P < 0.001, read-out: Cell No (% Control)

For `O=CCC1OCCC1=O` (racemic) [Compound 8, (3-ketotetrahydrofuran-2-yl)ethanal], the “Cell No” value ([1]; 0.5 μg/ml) was 12165, the “Cell No” value ([1]; 1.0 μg/ml) was 10932 and the “Cell No” value ([1]; 1.5 μg/ml) was 7453. For the same molecule, the “Cell No” value ([1]; 2.0 μg/ml) was 4675, the “Cell No” value ([1]; 5.0 μg/ml) was 201 and the activity at 0.5 µg/mL ([1]; Homo sapiens, 0.5 μg/ml, P < 0.001, read-out: Cell No (% Control)) was 83.9%. For the same molecule, the activity at 1 µg/mL ([1]; Homo sapiens, 1.0 μg/ml, P < 0.001, read-out: Cell No (% Control)) was 75.4%, the activity at 1.5 µg/mL ([1]; Homo sapiens, 1.5 μg/ml, P < 0.001, read-out: Cell No (% Control)) was 51.4% and the activity at 2 µg/mL [1, 10] was 32.2%. The activity at 5 µg/mL [1, 11] was 1.4%, the activity at 0.5 µg/mL ([2]; Homo sapiens, MOLT-4, MOLT4, 0.5 μg/ml, P < 0.001, read-out: Cell No (% Control)) was 91.2% and the activity at 1 µg/mL ([2]; Homo sapiens, MOLT-4, MOLT4, 1.0 μg/ml, P < 0.001, read-out: Cell No (% Control)) was 78.8%. For the same molecule, the activity at 1.5 µg/mL ([2]; Homo sapiens, MOLT-4, MOLT4, 1.5 μg/ml, P < 0.001, read-out: Cell No (% Control)) was 53.7%, the activity at 2 µg/mL ([2]; Homo sapiens, MOLT-4, MOLT4, 2.0 μg/ml, P < 0.001, read-out: Cell No (% Control)) was 34.2% and the activity at 5 µg/mL ([2]; Homo sapiens, MOLT-4, MOLT4, 5.0 μg/ml, P < 0.001, read-out: Cell No (% Control)) was 12.4%. The “Cell No” value ([2]; MOLT4, 0.5 μg/ml) was 4543, the “Cell No” value ([2]; MOLT4, 1.0 μg/ml) was 3920 and the “Cell No” value ([2]; MOLT4, 1.5 μg/ml) was 2674. The “Cell No” value ([2]; MOLT4, 2.0 μg/ml) was 1701, the “Cell No” value ([2]; MOLT4, 5.0 μg/ml) was 619 and the activity at 0.5 µg/mL ([3]; Homo sapiens, WIL2, 0.5 μg/ml, P < 0.001, read-out: Cell No (% Control)) was 85.3%. The activity at 1 µg/mL ([3]; Homo sapiens, WIL2, 1.0 μg/ml, P < 0.001, read-out: Cell No (% Control)) was 58.8%, the activity at 1.5 µg/mL ([3]; Homo sapiens, WIL2, 1.5 μg/ml, P < 0.001, read-out: Cell No (% Control)) was 24.9% and the activity at 2 µg/mL ([3]; Homo sapiens, WIL2, 2.0 μg/ml, P < 0.001, read-out: Cell No (% Control)) was 16.1%. The activity at 5 µg/mL ([3]; Homo sapiens, WIL2, 5.0 μg/ml, P < 0.001, read-out: Cell No (% Control)) was 7.1%, the “Cell No” value ([3]; WIL2, 0.5 μg/ml) was 8431 and the “Cell No” value ([3]; WIL2, 1.0 μg/ml) was 5810. For the same molecule, the “Cell No” value ([3]; WIL2, 1.5 μg/ml) was 2459, the “Cell No” value ([3]; WIL2, 2.0 μg/ml) was 1591 and the “Cell No” value ([3]; WIL2, 5.0 μg/ml) was 705. For the same molecule, the activity at 0.5 µg/mL ([4]; Homo sapiens, PA-1, 0.5 μg/ml, P < 0.001, read-out: Cell No (% Control)) was 84.3%, the activity at 1 µg/mL ([4]; Homo sapiens, PA-1, 1.0 μg/ml, P < 0.001, read-out: Cell No (% Control)) was 84.9% and the activity at 1.5 µg/mL ([4]; Homo sapiens, PA-1, 1.5 μg/ml, P < 0.001, read-out: Cell No (% Control)) was 77.3%. The activity at 2 µg/mL ([4]; Homo sapiens, PA-1, 2.0 μg/ml, P < 0.001, read-out: Cell No (% Control)) was 72.4%, the activity at 5 µg/mL ([4]; Homo sapiens, PA-1, 5.0 μg/ml, P < 0.001, read-out: Cell No (% Control)) was 20.9% and the “Cell No” value ([4]; PA-1, 0.5 μg/ml) was 11346. The “Cell No” value ([4]; PA-1, 1.0 μg/ml) was 11276, the “Cell No” value ([4]; PA-1, 1.5 μg/ml) was 10338 and the “Cell No” value ([4]; PA-1, 2.0 μg/ml) was 9678. The “Cell No” value ([4]; PA-1, 5.0 μg/ml) was 2729, the “Cell No” value ([5]; 2.0 μg/ml) was 9442 and the “Cell No” value ([5]; 5.0 μg/ml) was 6356. The “Cell No” value ([5]; 7.5 μg/ml) was 2469, the “Cell No” value ([5]; 10.0 μg/ml) was 862 and the “Cell No” value ([5]; 20.0 μg/ml) was 380. It also gave an activity at 2 µg/mL [5, 10] of 84.5%, an activity at 5 µg/mL [5, 11] of 56.9% and an activity at 7.5 µg/mL [5, 12] of 22.1%. For the same molecule, the activity at 10 µg/mL [5, 13] was 7.7%, the activity at 20 µg/mL [5, 14] was 3.4% and the “Cell No” value ([6]; 2.0 μg/ml) was 4401. The “Cell No” value ([6]; 5.0 μg/ml) was 4617, the “Cell No” value ([6]; 7.5 μg/ml) was 3495 and the “Cell No” value ([6]; 10.0 μg/ml) was 2800. For the same molecule, the “Cell No” value ([6]; 20.0 μg/ml) was 234, the activity at 2 µg/mL ([6]; Homo sapiens, Ca-Ski, 2.0 μg/ml, P < 0.001, read-out: Cell No (% Control)) was 89.1% and the activity at 5 µg/mL ([6]; Homo sapiens, Ca-Ski, 5.0 μg/ml, read-out: Cell No (% Control)) was 93.5%. For the same molecule, the activity at 7.5 µg/mL ([6]; Homo sapiens, Ca-Ski, 7.5 μg/ml, P < 0.001, read-out: Cell No (% Control)) was 70.8%, the activity at 10 µg/mL ([6]; Homo sapiens, Ca-Ski, 10.0 μg/ml, P < 0.001, read-out: Cell No (% Control)) was 56.7% and the activity at 20 µg/mL ([6]; Homo sapiens, Ca-Ski, 20.0 μg/ml, P < 0.001, read-out: Cell No (% Control)) was 4.7%. The activity at 2 µg/mL ([7]; Homo sapiens, PC-3, PC3, 2.0 μg/ml, P < 0.05, read-out: Cell No (% Control)) was 87.9%, the activity at 5 µg/mL ([7]; Homo sapiens, PC-3, PC3, 5.0 μg/ml, P < 0.001, read-out: Cell No (% Control)) was 67.4% and the activity at 7.5 µg/mL ([7]; Homo sapiens, PC-3, PC3, 7.5 μg/ml, P < 0.001, read-out: Cell No (% Control)) was 32.9%. The activity at 10 µg/mL ([7]; Homo sapiens, PC-3, PC3, 10.0 μg/ml, P < 0.001, read-out: Cell No (% Control)) was 9.3%, the activity at 20 µg/mL ([7]; Homo sapiens, PC-3, PC3, 20.0 μg/ml, P < 0.001, read-out: Cell No (% Control)) was 5.9% and the “Cell No” value ([7]; PC3, 2.0 μg/ml) was 5908. The “Cell No” value ([7]; PC3, 5.0 μg/ml) was 4532, the “Cell No” value ([7]; PC3, 7.5 μg/ml) was 2211 and the “Cell No” value ([7]; PC3, 10.0 μg/ml) was 627. For the same molecule, the “Cell No” value ([7]; PC3, 20.0 μg/ml) was 399, the “Cell No” value ([8]; 2.0 μg/ml) was 5845 and the “Cell No” value ([8]; 5.0 μg/ml) was 5762. For the same molecule, the “Cell No” value ([8]; 7.5 μg/ml) was 5097, the “Cell No” value ([8]; 10.0 μg/ml) was 3826 and the “Cell No” value ([8]; 20.0 μg/ml) was 178. It also gave an activity at 2 µg/mL ([8]; Homo sapiens, 2.0 μg/ml, P < 0.05, read-out: Cell No (% Control)) of 90.9%, an activity at 5 µg/mL ([8]; Homo sapiens, 5.0 μg/ml, P < 0.05, read-out: Cell No (% Control)) of 89.6% and an activity at 7.5 µg/mL [8, 12] of 79.3%. For the same molecule, the activity at 10 µg/mL [8, 13] was 59.5%, the activity at 20 µg/mL [8, 14] was 2.8% and the “Cell No” value ([9]; G361, 2.0 μg/ml) was 1679. For the same molecule, the “Cell No” value ([9]; G361, 5.0 μg/ml) was 314, the “Cell No” value ([9]; G361, 7.5 μg/ml) was 159 and the “Cell No” value ([9]; G361, 10.0 μg/ml) was 142. For the same molecule, the “Cell No” value ([9]; G361, 20.0 μg/ml) was 230, the activity at 2 µg/mL ([9]; Homo sapiens, G-361, G361, 2.0 μg/ml, P < 0.001, read-out: Cell No (% Control)) was 35.8% and the activity at 5 µg/mL ([9]; Homo sapiens, G-361, G361, 5.0 μg/ml, P < 0.001, read-out: Cell No (% Control)) was 6.7%. It also gave an activity at 7.5 µg/mL ([9]; Homo sapiens, G-361, G361, 7.5 μg/ml, P < 0.001, read-out: Cell No (% Control)) of 3.4%, an activity at 10 µg/mL ([9]; Homo sapiens, G-361, G361, 10.0 μg/ml, P < 0.001, read-out: Cell No (% Control)) of 3% and an activity at 20 µg/mL ([9]; Homo sapiens, G-361, G361, 20.0 μg/ml, P < 0.001, read-out: Cell No (% Control)) of 4.9%.
